Experimental data taken from US20240400521A1, “QUINAZOLINE COMPOUND, COMPOSITION, AND APPLICATION THEREOF” (BEIJING SCITECH-MQ PHARMACEUTICALS LIMITED, priority 2021, published 2024).
Read-outs that look alike come from different tables or passages of the source.

Assays:
HER2 kinase = target: T1, HER2 kinase (Homo sapiens, UniProt P04626); assay: HER2 kinase assay (ULight peptide / Eu-PT66 antibody detection); format: biochemical
T1 construct: purchased Carna Biosciences 08-016
Description: Reagents and consumables: ULight™-labeled Ploy GT Peptide (Perkin Elmer, Cat. No. TRF-0100-M); ULight™-labeled JAK-1 (Try1023) Peptide (Perkin Elmer, Cat. No. TRF-0121-M); Eu-W1024-labeled Anti-Phosphotyrosine Antibody (PT66) (Perkin Elmer, Cat. No. AD0068); 10×Detection Buffer (Perkin Elmer, Cat. No. CR97-100); HER2 Kinase (Carna Biosciences, Cat. No. 08-016); EGFR kinase (Carna Biosciences, Cat. No. 08-115); HEPES (GIBCO, Cat. No. 15630-080); EGTA (Sigma, Cat. No. 03777-10G); EDTA (Sigma, Cat. No. EDS-100G); MgCl2 (Sigma, Cat. No. 63069-100ML); DTT (Sigma, Cat. No. 43816-10ML); Tween-20 (Sigma, Cat. No. P7949-100ML); DMSO (Life Science, Cat. No. 0231-500ML); 384-well plates (Perkin Elmer, Cat. No. 607290); multifunctional plate reader (Perkin Elmer, Cat. No. Envision)
Preparation of compound solution: The assay compound was dissolved in DMSO to form a 10 mM stock solution. Prior to use, the compound was diluted to 0.25 mM in DMSO (100 times the final concentration of the diluent) and then subjected to a 3-fold concentration gradient dilution to obtain a total of 11 concentrations. The solution was diluted with buffer to a diluent with 4× the final concentration when the drug was added.
HER2 kinase assay: buffer was prepared, and 40 nM 4× HER2 kinase solution, 40 μM 4× ATP solution, and 400 nM 4×ULight™-labeled Ploy GT Peptide substrate solution were prepared using the buffer. After the preparation was completed, the enzyme was mixed with different concentrations of compounds pre-prepared by dilution, and the mixture was left to stand at room temperature for 5 min. Each concentration was performed in duplicate. The corresponding substrate and ATP were added and the mixture was reacted at room temperature for 120 minutes (with negative and positive controls). After completion of the reaction, PT66 detection antibody was added. The mixture was incubated at room temperature for 60 minutes, and then detected by Envision.
Data Calculation: the reading of well and inhibition rate were calculated using Excel, wherein reading of well=10000*(well EU665 value)/(well EU615 value), and inhibition rate=[(reading of positive control well−reading of assay well)/(reading of positive control well−reading of negative control well)]*100%. Compound concentrations and corresponding inhibition rates were input into GraphPad Prism for processing to calculate IC50 values.

[1] = Ability to penetrate the blood-brain barrier: brain and whole blood concentration in SD rats; format: in vivo; details: rat
Experimental: (§1) In this assay, the pharmacokinetic characteristics and ability to penetrate the blood-brain barrier of the compounds of the present application were assayed after administration of some of the compounds of the present application to SD rats by single oral administration and intravenous injection.
(§2) • 1. Intravenous (IV) injection group: an appropriate amount of the assay compound was weighed, and completely dissolved in an appropriate volume of vehicle (DMSO/Solutol/H2O=5/10/85 V/V/V with 2 times mole of HCl). The mixture was stirred, vortexed and/or sonicated. Once a solution was obtained, the vehicle was gradually added to a final volume to reach the target concentration. The solution was vortexed, and sonicated to obtain a homogeneous solution. The solution was filtered through a 0.22 μm PVDF membrane. • 2. Oral (PO) group: an appropriate amount of the assay compound was weighed, and completely dissolved in an appropriate volume of vehicle (DMSO/Solutol/H2O=5/10/85 V/V/V with 2 times mole of HCl). The mixture was stirred, vortexed and/or sonicated. Once a solution was obtained, the vehicle was gradually added to a final volume to reach the target concentration. The solution was vortexed, and sonicated to obtain a homogeneous solution. (iii) Administration and Sampling of Rats
(§3) Meanwhile, the IV group was not fasted and the PO group was fasted overnight (>12 hrs) and given food 2 hrs after drug administration. All animals had free access to water. The dosing regimen and pharmacokinetic sampling regimen are given in Table 6 and Table 7 below, respectively.
(§4) Rats were administered according to the above regimen, and blood and brain tissue samples were collected and processed at predetermined time points (collection and processing were performed according to conventional methods in the art).
(§5) Brains were weighed and homogenized by adding 4-fold homogenizing solution (acetonitrile/water=1/1). Six times volume of acetonitrile was added respectively to the whole blood samples and brain homogenate. The mixture was vortexed for 1 min and then centrifuged at 4° C., 4500 rpm for 15 min. The supernatant was diluted 2-fold with ultra-pure water, and the samples were analyzed by LC/MS.

[2] = Pharmacokinetics in SD rats after single oral and intravenous administration; format: in vivo; details: rat; for concentration at 0 hr: time point 0 hr; for concentration at 0.25 hr: time point 0.25 hr; for concentration at 0.5 hr: time point 0.5 hr; for concentration at 1 hr: time point 1 hr; for concentration at 2 hr: time point 2 hr; for concentration at 4 hr: time point 4 hr; for concentration at 7 hr: time point 7 hr
Experimental: as §1, §2, §3, §4, §5
Pharmacokinetic parameters were calculated using WinNonlin software. The following pharmacokinetic parameters were calculated if appropriate plasma drug concentration-time data were available: CL (clearance); Vd (apparent volume of distribution); T1/2 (elimination half-life time); Cmax (peak concentration); Tmax (time to peak); AUC (area under plasma drug concentration-time curve); MRT (mean retention time); F % (bioavailability).

[3] = SD, plasma, IV 3 mg/kg, read-out: Plasma drug concentration
[4] = SD, plasma, PO 10 mg/kg, read-out: Plasma drug concentration

T1 sequence (P04626 23-1255): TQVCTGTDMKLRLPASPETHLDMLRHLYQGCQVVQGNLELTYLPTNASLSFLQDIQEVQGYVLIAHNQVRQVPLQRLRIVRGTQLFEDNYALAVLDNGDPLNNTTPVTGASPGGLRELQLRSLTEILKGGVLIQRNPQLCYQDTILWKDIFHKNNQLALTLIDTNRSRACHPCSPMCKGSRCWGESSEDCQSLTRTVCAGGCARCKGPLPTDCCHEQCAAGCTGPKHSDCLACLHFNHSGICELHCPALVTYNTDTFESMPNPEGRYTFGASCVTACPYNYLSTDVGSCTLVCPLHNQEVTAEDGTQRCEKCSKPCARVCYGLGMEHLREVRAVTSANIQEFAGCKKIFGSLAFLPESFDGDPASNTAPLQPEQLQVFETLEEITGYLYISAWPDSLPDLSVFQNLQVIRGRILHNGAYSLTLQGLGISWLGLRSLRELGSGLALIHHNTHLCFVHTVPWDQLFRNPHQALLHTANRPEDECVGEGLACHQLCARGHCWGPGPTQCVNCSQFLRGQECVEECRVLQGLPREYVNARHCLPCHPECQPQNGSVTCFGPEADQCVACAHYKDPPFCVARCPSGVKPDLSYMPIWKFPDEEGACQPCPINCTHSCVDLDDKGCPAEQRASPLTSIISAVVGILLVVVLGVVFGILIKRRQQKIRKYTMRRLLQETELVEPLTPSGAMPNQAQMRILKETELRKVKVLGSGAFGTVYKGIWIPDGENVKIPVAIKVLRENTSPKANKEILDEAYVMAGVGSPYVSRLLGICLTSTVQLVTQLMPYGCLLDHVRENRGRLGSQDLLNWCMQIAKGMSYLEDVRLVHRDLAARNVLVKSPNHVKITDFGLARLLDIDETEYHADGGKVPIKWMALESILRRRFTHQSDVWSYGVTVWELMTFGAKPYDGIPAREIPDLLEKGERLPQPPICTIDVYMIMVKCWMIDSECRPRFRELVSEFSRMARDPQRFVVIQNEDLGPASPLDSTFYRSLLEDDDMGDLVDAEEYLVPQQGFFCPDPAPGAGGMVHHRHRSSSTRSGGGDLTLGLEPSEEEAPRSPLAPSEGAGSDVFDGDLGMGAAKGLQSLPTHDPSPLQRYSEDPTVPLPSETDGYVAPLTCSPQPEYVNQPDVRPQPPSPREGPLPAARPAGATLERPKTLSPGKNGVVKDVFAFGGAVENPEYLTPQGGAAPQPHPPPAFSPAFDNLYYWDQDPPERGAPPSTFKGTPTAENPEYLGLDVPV

COc1c(NC(=O)/C=C/CN(C)C)ccc2ncnc(Nc3cccc(Cl)c3F)c12 [Example 1, (E)-N-(4-((3-chloro-2-fluorophenyl)amino)-5-methoxyquinazolin-6-yl)-4-(dimethylamino)but-2-enamide]
IC50 (HER2 kinase): 100 to 1000 nM
Kp at 2 hours ([1]; SD, brain/blood, PO 10 mg/kg, 2 hours after administration, read-out: Brain/blood ratio): 3.06
concentration at 2 hours ([1]; SD, brain, PO 10 mg/kg, 2 hours after administration, read-out: Brain concentration): 1470 ng/g
concentration at 2 hours ([1]; SD, plasma, PO 10 mg/kg, 2 hours after administration, read-out: Plasma drug concentration): 480 ng/mL
ability to penetrate the blood-brain barrier (in words) [1]: excellent ability to penetrate the blood-brain barrier
AUC(0-inf) ([2]; SD, plasma, IV 3 mg/kg): 724 ± 105 ng·h/mL
AUC(0-t) ([2]; SD, plasma, IV 3 mg/kg): 709 ± 96 ng·h/mL
Vd ([2]; SD, plasma, IV 3 mg/kg): 8.76 ± 0.67 L/kg
half-life ([2]; SD, plasma, IV 3 mg/kg): 1.45 ± 0.09 h
concentration at 0 hr [2, 3]: 0 ng/mL
concentration at 0.083 hr ([2]; SD, plasma, IV 3 mg/kg, time point 0.083 hr, read-out: Plasma drug concentration): 888 ± 106 ng/mL
concentration at 0.25 hr [2, 3]: 494 ± 121 ng/mL
concentration at 0.5 hr [2, 3]: 365 ± 48 ng/mL
concentration at 1 hr [2, 3]: 175 ± 23 ng/mL
concentration at 2 hr [2, 3]: 78.2 ± 28.7 ng/mL
concentration at 4 hr [2, 3]: 18.8 ± 8.7 ng/mL
concentration at 7 hr [2, 3]: 7.05 ± 3.77 ng/mL
AUC(0-inf) ([2]; SD, plasma, PO 10 mg/kg): 1780 ± 178 ng·h/mL
AUC(0-t) ([2]; SD, plasma, PO 10 mg/kg): 1730 ± 170 ng·h/mL
Cmax ([2]; SD, plasma, PO 10 mg/kg): 281 ± 73 ng/mL
Tmax ([2]; SD, plasma, PO 10 mg/kg): 1 h
bioavailability ([2]; SD, plasma, PO 10 mg/kg): 73.6 ± 7.4%
half-life ([2]; SD, plasma, PO 10 mg/kg): 3.17 ± 1.22 h
concentration at 0 hr [2, 4]: 0 ng/mL
concentration at 0.25 hr [2, 4]: 83.2 ± 29.9 ng/mL
concentration at 0.5 hr [2, 4]: 227 ± 58 ng/mL
concentration at 1 hr [2, 4]: 281 ± 73 ng/mL
concentration at 2 hr [2, 4]: 249 ± 74 ng/mL
concentration at 4 hr [2, 4]: 77.7 ± 7.3 ng/mL
concentration at 7 hr [2, 4]: 72.6 ± 25.5 ng/mL
concentration at 24 hr ([2]; SD, plasma, PO 10 mg/kg, time point 24 hr, read-out: Plasma drug concentration): 14.2 ± 19.7 ng/mL
Cl_obs ([2]; IV 3 mg/kg): 70.0 ± 9.5 mL/min/kg
